Structures are written as SMILES.

In general, melting point refers to the temperature of the solid-liquid transition. Compound `CCC12CCC3C4CCC(=O)C=C4CCC3C1CCC2OCCN(C)C` (stereo not given) had a melting point of 87 to 88 °C.
The compound `CCCCCC(=O)Nc1ncc(OC)cn1` returned a melting point of 102 °C.
The compound `c1ccc(-c2cc3ccccc3s2)nc1` registered a melting point of 124 to 126 °C.
In the case of `COc1ccc(-c2cnn(-c3cccc(C(=O)O)c3)c2)cc1`, the melting point lay in the range of 238 to 239 °C.
Next, `FC(F)(F)c1ccc(-c2nc(Cl)cc(-c3ccccc3)n2)cc1`: 82 to 84 °C.
In turn, `Cn1c2ccccc2c(=O)c2c(Cl)cccc21` showed a melting point of 183 to 186 °C.
`Cc1c(C)c2c(c(C)c1O)C(CBr)C(C)(C)O2` (stereo not given) displayed a melting point of 79 to 80 °C.
The figure for `COC(=O)[C@H](O)[C@@H](NS(=O)(=O)c1c2ccccc2cc2ccccc12)c1ccccc1` is 98 to 102 °C; for `Nc1cc(C2COCCO2)ccn1` (stereo not given) it is 123 to 126 °C; for `CCCC(=O)Nc1cccc(-c2cccc(OC)c2)c1` it is 90 to 91 °C.
In turn, `COc1nc(C)nc(N(C)C(=O)NS(=O)(=O)c2ccccc2OC(F)(F)F)n1` registered a melting point of 162 °C.
Next, `O=c1[nH]c2cc(Cl)ccc2c(O)c1-c1ccc(Oc2ccccc2)cc1`: 274 to 276 °C.
As to `O=C(NNc1ccc(C(F)(F)F)cc1)c1ccccc1F`, the melting point lay in the range of 163 to 165 °C.
Consider `O=C1C(Cl)=C(Nc2ccc(S(=O)(=O)Nc3ccccn3)cc2)C(=O)c2ccccc21`, for which the melting point fell in the range of 273 to 275 °C.
The figure for `O=C1O[C@](CCc2cccc(O)c2)(C2CCCC2)CC(O)=C1N(c1ccccc1)c1ccccc1` is 90 to 92 °C; for `CC(C)c1c(/C=C/[C@@H]2C[C@@H](O)CC(=O)O2)n(-c2ccc(F)cc2)c(=O)c2ccccc12` it is 207 to 209 °C.
Compound `CCOC(=O)COc1ccc(SCc2ccc3nc(-c4ccc(C(F)(F)F)cc4)sc3c2)cc1C` gave a melting point of 176 to 177 °C.
Turning to `CN1CCc2cc(NC(=O)/C=C/c3ccc(C(C)(C)C)cc3)ccc21`, the melting point is 194 °C.
`O=C(O)CC1CCCc2c1n(Cc1ccccc1Cl)c1c(F)cc(F)cc21` (stereo not given) displayed a melting point of 197 to 198 °C.
The compound `Nc1ncnc2c([C@@H]3N[C@H](CO)[C@@H](O)[C@H]3O)c[nH]c12` gave a melting point of 238 °C.
`COc1ccc(CCc2oc3ccc(C#N)cc3c2C(C)=O)cc1` yielded a melting point of 130 to 131 °C.
Next, `O=Cc1cn(CCCCO)c2ncccc12`: 90 °C.
`CN(Cc1ccccc1)C(=O)c1c(-c2ccncc2)c(-c2ccc(F)cc2)nn1C` yielded a melting point of 149 to 150 °C.
`CN1CCN(CCc2[nH]c(=O)[nH]c2-c2ccc(F)cc2)CC1` showed a melting point of 237 to 239 °C.
Take `Cc1ccc(NC(=O)c2c(Cl)cccc2Cl)c2nccc(-n3ccnc3)c12`: the melting point was 236 °C.
For `CCc1cccc2c(O)cnnc12`, the melting point is 160 to 161 °C.
Compound `COc1ccc2c(n1)c(CCNC(C)=O)c1n2CCCO1` had a melting point of 92 to 93 °C.
`CC(C)OC(=O)Nc1cccc2c1C(=O)C1(O)c3ccc(C(C)C)cc3OC21O` (stereo not given) returned a melting point of 200 to 202 °C.
Next, `CC(C)(C)C1=CC(O)(c2ccc(F)cc2)C=C(C(C)(C)C)C1=O`: 123 to 125 °C; `C#Cc1ccc2c(c1)C=C(C(=O)O)C(C(F)(F)F)O2` (stereo not given): 198 to 200 °C; `CC12CCC(C(=Cc3ccc(OCCO)cc3)C1=O)C2(C)C` (stereo not given): 68 °C.
Compound `Cc1cccc(C)c1NC(=O)CN1CCCC1=O` registered a melting point of 153 to 154 °C.
The compound `CC(C)(NC(=O)CCn1cnc(C=O)c1)c1ccc(Cl)cc1` came in with a melting point of 151 to 153 °C.
In the case of `Cc1sc(C=O)c(C)c1C`, the melting point is 45 to 46 °C.
With `Cc1cn(S(=O)(=O)c2cccc(C(C)(C)C)c2)c2ccc(C(F)(F)F)cc12`, the melting point is 90 to 108 °C.
Take `COc1ccc(-c2cc3ccc(OC)cc3s2)cc1`: the melting point fell in the range of 193 to 194 °C.
With `Cc1nn(CCCl)c(-c2ccc(F)cc2)c1-c1ccc2c(c1)NC(=O)CO2`, the melting point turned out to be 216 °C.
The figure for `CC(C#Cc1cccc(C2=NOC(c3ccc(F)cc3)C2)c1)N(O)C(N)=O` (stereo not given) is 132 to 133 °C; for `COc1cccc(CCC(c2ccccc2)C(O)c2ccc(O)cc2)c1` (stereo not given) it is 100 to 103 °C; for `CN1c2ccccc2-n2cc(Cc3cccnc3)c(=O)c3cccc1c32` it is 96.8 to 97.6 °C.
As to `O=c1[nH]c2ncc(-c3cccnc3)nc2n1CC1CCCCC1`, the melting point is 205 °C.
The compound `CC#CCn1c(=N)sc2cc(OC(F)(F)F)ccc21` showed a melting point of 116 °C.
Take `CCOC(=O)C1CCc2ccc(OC)cc2C1` (stereo not given): the melting point lay within 125 to 127 °C.
For `CNC(=O)C#CCc1ccc(OC)cc1`, the melting point was in the range of 123 to 124 °C.
`CCS(=O)(=O)Nc1cc(-n2nnn(CCCF)c2=O)c(F)cc1Cl` registered a melting point of 84 to 85 °C.
In turn, `CSCc1cc([N+](=O)[O-])ccc1N1C(=O)c2ccc(Cl)cc2C1=O` returned a melting point of 112 to 115 °C.
Next, `Cc1cc(CN2CC(=O)N(c3cnn(Cc4c(C)noc4C)c3)C2=O)n(C)n1`: 145 to 146 °C; `Cc1cc(F)ccc1-c1ccc(S(=O)(=O)N2c3ccccc3CC2C(=O)NCCOc2ccc(C(=O)OC(C)(C)C)cc2)cc1` (stereo not given): 84 °C.
The figure for `Nc1nc2c(ncn2Cc2ccoc2)c(=O)[nH]1` is 308 to 310 °C.
On to `CCCCCCCCCCCCCCCCCCOc1coc(CO)cc1=O`, for which the melting point is 71 to 73 °C.
The figure for `Cn1ncc2c(c1=O)SCCNC2C(=O)c1ccccc1` (stereo not given) is 210 °C; for `CCOC(=O)c1cn(-c2nc(N)c(F)cc2F)c2c(F)c(F)c(F)c(F)c2c1=O` it is 223 to 230 °C; for `O=C(NC(=O)c1ccc2ncccc2c1)NC1CCN(Cc2ccc3cc(F)ccc3c2)CC1` it is 200 to 201 °C.
On to `O=C1CCC(N2C(=O)c3cccc(OCc4ccccc4)c3C2=O)C(=O)N1` (stereo not given), for which the melting point lay in the range of 238 to 240 °C.
The compound `NCCc1cccc(N2C(=O)N(c3ccc(C(F)(F)F)cc3Cl)Cc3cnc(Nc4ccccc4)nc32)c1` registered a melting point of 102 °C.
Turning to `CCCCN1CCC(C(=O)O)(S(=O)(=O)c2ccc(OC)cc2)CC1`, the melting point is 206 °C.
As for `CCCNC(=O)Nc1nn(Cc2ccccc2)cc1C(=O)OCC`, the melting point was in the range of 100 to 101 °C.
As to `CC(C)(C)c1ccc(C2OCC(CO)([N+](=O)[O-])CO2)cc1` (stereo not given), the melting point was in the range of 90 to 92 °C.
Next, `NCCCNC(=O)c1cccc(Nc2nccc(-c3ccnc(NCCCO)c3)n2)c1`: 169 to 170 °C.
`CCCCCCCCOc1cnc(-c2ccc(CCCCCC(C)OC(C)=O)cc2)nc1` (single isomer, unassigned; (+)) gave a melting point of 73 to 74 °C.
`COc1ccc(-c2c3c(c(O)c4cc(OC)c(OC)c(OC)c24)C(=O)CCC3)cc1OC` registered a melting point of 164 to 166 °C.
The figure for `OC(c1ccc(Cl)cc1)(c1ccc(Cl)cc1)C1CO1` (stereo not given) is 87 to 88 °C.
`CCCn1nc(C(C)C)c(C(=O)OCc2ccccc2C(=O)c2ccccc2)c1Cc1ccc(-c2ccccc2S(=O)(=O)NC(=O)OC(C)(C)C)c(F)c1`: the melting point lay in the range of 57 to 61 °C.
In the case of `OC1CN(Cc2ccccc2)C1`, the melting point was in the range of 64.5 to 65.5 °C.
Compound `Cc1c2c(c(C(C)(O)c3ccc(C(C)C)cc3)c(C)c1NC(=O)OC(C)(C)C)OCC2` (stereo not given) had a melting point of 185 to 186 °C.
With `COC(=O)c1ccc(NC2CCCCC2)cc1C(=O)OC`, the melting point is 217 to 219 °C.
Next, `CC(=O)c1cc(CO)c(OCCCCC#N)cc1OCCCCC#N`: 98 to 99 °C; `NS(=O)(=O)c1cc2c(s1)CCCC2O` (stereo not given): 102 to 103 °C.
Take `CC(C)(CO)CCCCCCCCCCCC(C)(C)CO`: the melting point was in the range of 45 to 47 °C.
`COc1ccnc(N2CCN(C(=O)c3ccco3)CC2)n1` displayed a melting point of 85 to 86 °C.
`COc1ccc(-n2cnc3ccc(-c4nnc(CCc5cccc(F)c5)o4)cc32)cc1`: the melting point is 145 to 147 °C.
`Cc1c(C)c(N2CCN(Cc3ccccc3)CC2)c(C)c2c1OC(C)(C)C2(O)c1ccc(F)nc1` (stereo not given) registered a melting point of 105 to 109 °C.
`COc1ccc(-c2nc(C)c(C)s2)cc1`: the melting point lay within 166 to 170 °C.
`CCN1CCc2c([nH]c3ccccc23)C1CNC(=O)OCc1ccccc1` (stereo not given) showed a melting point of 92 to 94 °C.
As to `COc1c(-c2ccc3cc(NS(C)(=O)=O)ccc3c2)cc(N2CCCC2=O)cc1C(C)(C)C`, the melting point was 229 to 230 °C.
As for `NC[C@@H]1CNc2cccc(-c3ccccc3C(F)(F)F)c2O1`, the melting point was 180 °C.
Compound `Nc1ccc(-c2ccncc2)cc1` returned a melting point of 232 to 234 °C.
Next, `COc1ccc(N2CCCC2=O)cc1OC1CCCC1`: 130 to 131 °C; `CN1C2CCC1CN(c1ccc(-c3cccs3)nn1)C2`: 156 °C; `CN(c1cccc(C(F)(F)F)c1)c1cc(Oc2cccc(C(F)(F)F)c2)ncn1`: 118 to 119 °C.
For the compound `O=C1c2cc3nnn(Cc4ccccn4)c(=O)c3cc2OC2CCCN12` (stereo not given), the melting point lay in the range of 184 to 186 °C.
Turning to `Cn1cnc(COc2nn3c(-c4ccccc4F)nnc3cc2C2(C)CCOCC2)n1`, the melting point was determined as 154 °C.
The compound `NC(=O)N1C(=O)C(=C(OCCc2ccccc2)c2cccs2)c2cc(F)c(Cl)cc21` yielded a melting point of 202 to 203 °C.
The figure for `CC(=O)Nc1nc(C=O)cs1` is 196 to 199 °C.
Turning to `COC(=O)COc1ccc(-c2ccc(C(=O)OCc3ccccc3)cc2)cc1-c1ccc2c(c1)C(C)(C)CCC2(C)C`, the melting point was 104 to 106 °C.
`O=C1c2ccccc2C(=O)N1CCCN1CCN(c2ccccc2)CC1` gave a melting point of 105 to 122 °C.
Consider `Oc1ccc(-c2ncc3ncc(-c4ccccc4O)cc3n2)cc1`, for which the melting point lay in the range of 278 to 279 °C.
The compound `O=C(O)c1nn(-c2ccc(Cl)cc2)c2c1CCCC2` displayed a melting point of 218 °C.
Next, `CCN(CC)c1nc(C)cc(O)n1`: 131 to 132 °C.
Compound `COC(=O)C=Cc1ccc(-n2c(C)ccc2C)cc1` yielded a melting point of 73 to 75 °C.

The record behind these values is a melting point compilation (Tetko et al.; mined from patent text by program, amines drawn as free bases though some values may be those of a salt).
